Measured values reported in patent US20230049952A1, “METHODS AND COMPOUNDS FOR RESTORING MUTANT P53 FUNCTION” (PMV Pharmaceuticals, Inc., priority 2020, published 2023).

System: NF-κB signaling pathway in MT373 tumors
Experiment: MT373 syngeneic sarcoma model: mouse NF-κB signaling pathway profiling panel
Assay type: in vivo

CCn1c(C#CCNc2ccccc2)cc2cc(CNC3CCN(C)CC3)ccc21 [Compound 1, 1-Anilino-3-{1-ethyl-5-[(1-methyl-4-piperidylamino)methyl]-1H-indol-2-yl}-2-propyne]
Agt fold increase over or percent reduction vs vehicle control (150 mg/kg BIDx1, 24 h): 8.18 ± 30.61 fold or % | Akt1 fold increase over or percent reduction vs vehicle control (150 mg/kg BIDx1, 24 h): 17.84 ± 6.63 fold or % | Atf1 fold increase over or percent reduction vs vehicle control (150 mg/kg BIDx1, 24 h): 42.27 ± 2.47 fold or % | Atf2 fold increase over or percent reduction vs vehicle control (150 mg/kg BIDx1, 24 h): 24.19 ± 2.49 fold or % | Bcl2a1a fold increase over or percent reduction vs vehicle control (150 mg/kg BIDx1, 24 h): 39.52 ± 5.46 fold or % | Bcl2l1 fold increase over or percent reduction vs vehicle control (150 mg/kg BIDx1, 24 h): 1.43 ± 0.11 fold or % | Bcl3 fold increase over or percent reduction vs vehicle control (150 mg/kg BIDx1, 24 h): 1.29 ± 0.31 fold or % | Bcl10 fold increase over or percent reduction vs vehicle control (150 mg/kg BIDx1, 24 h): 38.94 ± 3.05 fold or % | Birc3 fold increase over or percent reduction vs vehicle control (150 mg/kg BIDx1, 24 h): 1.03 ± 0.07 fold or % | Card10 fold increase over or percent reduction vs vehicle control (150 mg/kg BIDx1, 24 h): 1.32 ± 0.33 fold or % | Card11 fold increase over or percent reduction vs vehicle control (150 mg/kg BIDx1, 24 h): 1.14 ± 0.14 fold or % | Casp1 fold increase over or percent reduction vs vehicle control (150 mg/kg BIDx1, 24 h): 14.78 ± 4.65 fold or % | Casp8 fold increase over or percent reduction vs vehicle control (150 mg/kg BIDx1, 24 h): 9.24 ± 3.65 fold or % | Ccl2 fold increase over or percent reduction vs vehicle control (150 mg/kg BIDx1, 24 h): 57.69 ± 14.13 fold or % | Ccl5 fold increase over or percent reduction vs vehicle control (150 mg/kg BIDx1, 24 h): 21.82 ± 7.86 fold or % | Cd27 fold increase over or percent reduction vs vehicle control (150 mg/kg BIDx1, 24 h): 1.11 ± 0.11 fold or % | Cd40 fold increase over or percent reduction vs vehicle control (150 mg/kg BIDx1, 24 h): 30.05 ± 5.34 fold or % | Cflar fold increase over or percent reduction vs vehicle control (150 mg/kg BIDx1, 24 h): 1.01 ± 0.08 fold or % | Chuk fold increase over or percent reduction vs vehicle control (150 mg/kg BIDx1, 24 h): 1.03 ± 0.07 fold or % | Crebbp fold increase over or percent reduction vs vehicle control (150 mg/kg BIDx1, 24 h): 1.07 ± 0.06 fold or % | Csf1 fold increase over or percent reduction vs vehicle control (150 mg/kg BIDx1, 24 h): 14.27 ± 12.28 fold or % | Csf2 fold increase over or percent reduction vs vehicle control (150 mg/kg BIDx1, 24 h): 61.29 ± 2.87 fold or % | Csf3 fold increase over or percent reduction vs vehicle control (150 mg/kg BIDx1, 24 h): 27.25 ± 12.00 fold or % | Egfr fold increase over or percent reduction vs vehicle control (150 mg/kg BIDx1, 24 h): 28.45 ± 5.44 fold or % | Egr1 fold increase over or percent reduction vs vehicle control (150 mg/kg BIDx1, 24 h): 37.93 ± 8.71 fold or % | Eif2ak2 fold increase over or percent reduction vs vehicle control (150 mg/kg BIDx1, 24 h): 1.05 ± 0.10 fold or % | Elk1 fold increase over or percent reduction vs vehicle control (150 mg/kg BIDx1, 24 h): 12.50 ± 9.71 fold or % | F2r fold increase over or percent reduction vs vehicle control (150 mg/kg BIDx1, 24 h): 40.30 ± 2.19 fold or % | Fadd fold increase over or percent reduction vs vehicle control (150 mg/kg BIDx1, 24 h): 5.03 ± 3.48 fold or % | Fasl fold increase over or percent reduction vs vehicle control (150 mg/kg BIDx1, 24 h): 31.85 ± 3.66 fold or % | Fos fold increase over or percent reduction vs vehicle control (150 mg/kg BIDx1, 24 h): 12.09 ± 14.97 fold or % | Hmox1 fold increase over or percent reduction vs vehicle control (150 mg/kg BIDx1, 24 h): 13.99 ± 4.70 fold or % | Icam1 fold increase over or percent reduction vs vehicle control (150 mg/kg BIDx1, 24 h): 1.20 ± 0.24 fold or % | Ifng fold increase over or percent reduction vs vehicle control (150 mg/kg BIDx1, 24 h): 35.82 ± 11.11 fold or % | Ikbkb fold increase over or percent reduction vs vehicle control (150 mg/kg BIDx1, 24 h): 1.13 ± 0.20 fold or % | Ikbke fold increase over or percent reduction vs vehicle control (150 mg/kg BIDx1, 24 h): 1.48 ± 0.37 fold or % | Ikbkg fold increase over or percent reduction vs vehicle control (150 mg/kg BIDx1, 24 h): 1.07 ± 0.09 fold or % | Il1a fold increase over or percent reduction vs vehicle control (150 mg/kg BIDx1, 24 h): 13.50 ± 23.10 fold or % | Il1b fold increase over or percent reduction vs vehicle control (150 mg/kg BIDx1, 24 h): 63.25 ± 18.78 fold or % | Il1r1 fold increase over or percent reduction vs vehicle control (150 mg/kg BIDx1, 24 h): 31.14 ± 6.16 fold or % | Il10 fold increase over or percent reduction vs vehicle control (150 mg/kg BIDx1, 24 h): 1.52 ± 0.15 fold or % | Irak1 fold increase over or percent reduction vs vehicle control (150 mg/kg BIDx1, 24 h): 1.93 ± 9.47 fold or % | Irak2 fold increase over or percent reduction vs vehicle control (150 mg/kg BIDx1, 24 h): 24.86 ± 5.53 fold or % | Irf1 fold increase over or percent reduction vs vehicle control (150 mg/kg BIDx1, 24 h): 4.44 ± 20.95 fold or % | Jun fold increase over or percent reduction vs vehicle control (150 mg/kg BIDx1, 24 h): 29.31 ± 10.13 fold or % | Lta fold increase over or percent reduction vs vehicle control (150 mg/kg BIDx1, 24 h): 12.59 ± 29.28 fold or % | Ltbr fold increase over or percent reduction vs vehicle control (150 mg/kg BIDx1, 24 h): 11.61 ± 7.41 fold or % | Map3k1 fold increase over or percent reduction vs vehicle control (150 mg/kg BIDx1, 24 h): 1.40 ± 0.14 fold or % | Mapk3 fold increase over or percent reduction vs vehicle control (150 mg/kg BIDx1, 24 h): 10.05 ± 3.02 fold or % | Myd88 fold increase over or percent reduction vs vehicle control (150 mg/kg BIDx1, 24 h): 1.33 ± 0.11 fold or % | Nfkb1 fold increase over or percent reduction vs vehicle control (150 mg/kg BIDx1, 24 h): 1.39 ± 12.08 fold or % | Nfkb2 fold increase over or percent reduction vs vehicle control (150 mg/kg BIDx1, 24 h): 1.01 ± 0.29 fold or % | Nfkbia fold increase over or percent reduction vs vehicle control (150 mg/kg BIDx1, 24 h): 3.07 ± 2.68 fold or % | Nod1 fold increase over or percent reduction vs vehicle control (150 mg/kg BIDx1, 24 h): 1.24 ± 0.24 fold or % | Raf1 fold increase over or percent reduction vs vehicle control (150 mg/kg BIDx1, 24 h): 11.54 ± 3.56 fold or % | Rel fold increase over or percent reduction vs vehicle control (150 mg/kg BIDx1, 24 h): 1.09 ± 0.06 fold or % | Rela fold increase over or percent reduction vs vehicle control (150 mg/kg BIDx1, 24 h): 1.02 ± 0.07 fold or % | Relb fold increase over or percent reduction vs vehicle control (150 mg/kg BIDx1, 24 h): 1.10 ± 0.14 fold or % | Ripk1 fold increase over or percent reduction vs vehicle control (150 mg/kg BIDx1, 24 h): 1.25 ± 0.04 fold or % | Ripk2 fold increase over or percent reduction vs vehicle control (150 mg/kg BIDx1, 24 h): 27.80 ± 7.83 fold or % | Slc20a1 fold increase over or percent reduction vs vehicle control (150 mg/kg BIDx1, 24 h): 29.02 ± 4.69 fold or % | Smad3 fold increase over or percent reduction vs vehicle control (150 mg/kg BIDx1, 24 h): 4.92 ± 19.78 fold or % | Stat1 fold increase over or percent reduction vs vehicle control (150 mg/kg BIDx1, 24 h): 1.17 ± 0.19 fold or % | Tbk1 fold increase over or percent reduction vs vehicle control (150 mg/kg BIDx1, 24 h): 6.71 ± 4.73 fold or % | Tlr1 fold increase over or percent reduction vs vehicle control (150 mg/kg BIDx1, 24 h): 1.17 ± 0.16 fold or % | Tlr2 fold increase over or percent reduction vs vehicle control (150 mg/kg BIDx1, 24 h): 4.13 ± 15.48 fold or % | Tlr3 fold increase over or percent reduction vs vehicle control (150 mg/kg BIDx1, 24 h): 1.08 ± 0.12 fold or % | Tlr4 fold increase over or percent reduction vs vehicle control (150 mg/kg BIDx1, 24 h): 1.11 ± 0.05 fold or % | Tlr6 fold increase over or percent reduction vs vehicle control (150 mg/kg BIDx1, 24 h): 1.04 ± 0.10 fold or % | Tlr9 fold increase over or percent reduction vs vehicle control (150 mg/kg BIDx1, 24 h): 1.33 ± 0.19 fold or % | Tnf fold increase over or percent reduction vs vehicle control (150 mg/kg BIDx1, 24 h): 1.84 ± 47.89 fold or % | Tnfaip3 fold increase over or percent reduction vs vehicle control (150 mg/kg BIDx1, 24 h): 3.01 ± 14.38 fold or % | Tnfrsf1a fold increase over or percent reduction vs vehicle control (150 mg/kg BIDx1, 24 h): 1.21 ± 0.13 fold or % | Tnfrsf1b fold increase over or percent reduction vs vehicle control (150 mg/kg BIDx1, 24 h): 1.23 ± 0.12 fold or % | Tnfrsf10b fold increase over or percent reduction vs vehicle control (150 mg/kg BIDx1, 24 h): 2.61 ± 0.31 fold or % | Tnfsf10 fold increase over or percent reduction vs vehicle control (150 mg/kg BIDx1, 24 h): 18.51 ± 14.05 fold or % | Tnfsf14 fold increase over or percent reduction vs vehicle control (150 mg/kg BIDx1, 24 h): 1.11 ± 0.17 fold or % | Tollip fold increase over or percent reduction vs vehicle control (150 mg/kg BIDx1, 24 h): 1.01 ± 0.06 fold or % | Tradd fold increase over or percent reduction vs vehicle control (150 mg/kg BIDx1, 24 h): 1.17 ± 0.08 fold or % | Traf2 fold increase over or percent reduction vs vehicle control (150 mg/kg BIDx1, 24 h): 8.21 ± 7.59 fold or % | Traf3 fold increase over or percent reduction vs vehicle control (150 mg/kg BIDx1, 24 h): 13.02 ± 10.57 fold or % | Traf5 fold increase over or percent reduction vs vehicle control (150 mg/kg BIDx1, 24 h): 21.79 ± 2.60 fold or % | Traf6 fold increase over or percent reduction vs vehicle control (150 mg/kg BIDx1, 24 h): 1.03 ± 0.16 fold or % | Zap70 fold increase over or percent reduction vs vehicle control (150 mg/kg BIDx1, 24 h): 1.01 ± 0.07 fold or % | Agt fold increase over or percent reduction vs vehicle control (150 mg/kg BIDx1, 48 h): 1.60 ± 0.41 fold or % | Akt1 fold increase over or percent reduction vs vehicle control (150 mg/kg BIDx1, 48 h): 4.50 ± 1.92 fold or % | Atf1 fold increase over or percent reduction vs vehicle control (150 mg/kg BIDx1, 48 h): 42.46 ± 1.99 fold or % | Atf2 fold increase over or percent reduction vs vehicle control (150 mg/kg BIDx1, 48 h): 30.02 ± 3.86 fold or %
